Experimental data: PubChem BioAssay AID248 (DTP/NCI, 2004)
Several values for one entry are separate records, joined by “and”; a condition that tells them apart may be missing. Equal values may be shown once. Inconclusive results and toxic doses are left out. Rule as the data show it: active = T/C of 150% or more; inactive = T/C below 125%.

Tested on: L1210 leukemia ip in BDF1 mice, survival T/C
Test: NCI In Vivo Anticancer Drug Screen. Data for tumor model L1210 Leukemia (intraperitoneal) in B6D2F1 (BDF1) mice
Conditions: endpoint: mean survival time, higher = longer survival
Summary of the method: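 Transplanted-tumor mice were given test agent; controls received vehicle only. Survival readings from the two groups were divided (treated over control).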

[1] = dose: 100.0 mg/kg/injection, schedule: Q01DX001 (ip), vehicle: saline
[2] = dose: 200.0 mg/kg/injection, schedule: Q01DX001 (ip), vehicle: saline
[3] = dose: 400.0 mg/kg/injection, schedule: Q01DX001 (ip), vehicle: saline
[4] = dose: 100.0 mg/kg/injection, schedule: Q01DX009 (ip), vehicle: saline with Tween-80
[5] = dose: 200.0 mg/kg/injection, schedule: Q01DX009 (ip), vehicle: saline with Tween-80
[6] = dose: 400.0 mg/kg/injection, schedule: Q01DX009 (ip), vehicle: saline with Tween-80
[7] = dose: 100.0 mg/kg/injection, schedule: Q01DX009 (ip), vehicle: Klucel (hydroxypropylcellulose) (HPC)
[8] = dose: 100.0 mg/kg/injection, schedule: Q04DX003 (ip), vehicle: Klucel (hydroxypropylcellulose) (HPC)
[9] = dose: 200.0 mg/kg/injection, schedule: Q01DX009 (ip), vehicle: Klucel (hydroxypropylcellulose) (HPC)
[10] = dose: 200.0 mg/kg/injection, schedule: Q04DX003 (ip), vehicle: Klucel (hydroxypropylcellulose) (HPC)
[11] = dose: 400.0 mg/kg/injection, schedule: Q01DX009 (ip), vehicle: Klucel (hydroxypropylcellulose) (HPC)
[12] = dose: 400.0 mg/kg/injection, schedule: Q04DX003 (ip), vehicle: Klucel (hydroxypropylcellulose) (HPC)
[13] = dose: 100.0 mg/kg/injection, schedule: Q04DX003 (ip), vehicle: saline with Tween-80
[14] = dose: 200.0 mg/kg/injection, schedule: Q04DX003 (ip), vehicle: saline with Tween-80
[15] = dose: 400.0 mg/kg/injection, schedule: Q04DX003 (ip), vehicle: saline with Tween-80
[16] = dose: 100.0 mg/kg/injection, schedule: Q04DX002 (ip), vehicle: Klucel (hydroxypropylcellulose) (HPC)
[17] = dose: 200.0 mg/kg/injection, schedule: Q04DX002 (ip), vehicle: Klucel (hydroxypropylcellulose) (HPC)
[18] = dose: 400.0 mg/kg/injection, schedule: Q04DX002 (ip), vehicle: Klucel (hydroxypropylcellulose) (HPC)
[19] = dose: 50.0 mg/kg/injection, schedule: Q01DX001 (ip), vehicle: saline

Measured: T/C

CC(C)=NNc1cccc2cccc(N)c12
inactive: [1] 97 % of control | [2] 95 % of control | [3] 97 % of control

ClCC1Oc2ccccc2O1
inactive: dose: 100.0 mg/kg/injection, schedule: Q01DX001 (ip), vehicle: other 101 % of control | dose: 400.0 mg/kg/injection, schedule: Q01DX001 (ip), vehicle: other 97 % of control

CCOc1ccc(Br)cc1/C=C1/NC(=O)NC1=O
inactive: [4] 95 % of control | dose: 100.0 mg/kg/injection, schedule: Q04DX002 (ip), vehicle: saline with Tween-80 102 % of control | [5] 101 % of control | dose: 200.0 mg/kg/injection, schedule: Q04DX002 (ip), vehicle: saline with Tween-80 97 % of control | [6] 98 % of control | dose: 400.0 mg/kg/injection, schedule: Q04DX002 (ip), vehicle: saline with Tween-80 97 % of control

Cc1ccc2ccccc2c1CC(=O)O
inactive: [7] 101 % of control | [8] 112 % of control | [9] 95 % of control | [10] 96 % of control | [11] 117 % of control | [12] 96 % of control

Cn1c2ccccc2c(=O)c2cc([N+](=O)[O-])ccc21
inactive: [13] 93 % of control | [14] 97 % of control | [15] 93 % of control

CC(C)(C)c1cc(/C=N/NC(=O)CC2CCCCC2)cc(C(C)(C)C)c1O
inactive: [4] 92 % of control | [5] 92 % of control | [6] 97 % of control

CCOC(=O)c1nc(N)nc(N)c1-c1ccc(Cl)cc1
inactive: dose: 25.0 mg/kg/injection, schedule: Q01DX001 (ip), vehicle: saline with Tween-80 98 % of control | dose: 50.0 mg/kg/injection, schedule: Q01DX001 (ip), vehicle: saline with Tween-80 104 % of control | dose: 100.0 mg/kg/injection, schedule: Q01DX001 (ip), vehicle: saline with Tween-80 102 % of control

O=C(O)Cc1ccc(C2CCCCC2)cc1
inactive: dose: 37.5 mg/kg/injection, schedule: Q01DX Z (ip), vehicle: carboxymethylcellulose (CMC) 98 % of control | dose: 75.0 mg/kg/injection, schedule: Q01DX Z (ip), vehicle: carboxymethylcellulose (CMC) 95 % of control | dose: 150.0 mg/kg/injection, schedule: Q01DX Z (ip), vehicle: carboxymethylcellulose (CMC) 102 % of control | dose: 300.0 mg/kg/injection, schedule: Q01DX Z (ip), vehicle: carboxymethylcellulose (CMC) 102 % of control

NC(CSS(=O)(=O)O)=NCc1ccccn1
inactive: [16] 95 % of control | [17] 101 % of control | [18] 98 % of control

O=[N+]([O-])c1cc(Cl)ccc1S(=O)(=O)/C=C/c1ccccc1
inactive: [1] 104 % of control | dose: 100.0 mg/kg/injection, schedule: Q01DX009 (ip), vehicle: saline 94 % of control | [2] 104 % of control | dose: 200.0 mg/kg/injection, schedule: Q01DX009 (ip), vehicle: saline 96 % of control | [3] 100 % of control | dose: 400.0 mg/kg/injection, schedule: Q01DX009 (ip), vehicle: saline 91 % of control

CCN(CC)CCSSCCN(CC)CC
inactive: [19] 88 % of control | [1] 96 % of control

CCOC(=O)C1=C(C)NC(C)=C(C(=O)OCC)C1c1cccc([N+](=O)[O-])c1
inactive: [8] 100 % of control | [10] 105 % of control | [12] 108 % of control

CN(C)CCC(=O)c1ccc(-c2ccccc2)cc1
inactive: [8] 97 % of control | [10] 97 % of control

CN(C)C1=CS(=O)(=O)C1
inactive: dose: 75.0 mg/kg/injection, schedule: Q01DX001 (ip), vehicle: saline 94 % of control | dose: 150.0 mg/kg/injection, schedule: Q01DX001 (ip), vehicle: saline 97 % of control

CN=C(c1ccc(NC(=O)c2cc(C(=O)Nc3ccc(C(=NC)N(C)C)cc3)cc([N+](=O)[O-])c2)cc1)N(C)C
inactive: dose: 1.88 mg/kg/injection, schedule: Q01DX Z (ip), vehicle: saline 100 % of control | dose: 3.75 mg/kg/injection, schedule: Q01DX Z (ip), vehicle: saline 100 % of control | dose: 7.5 mg/kg/injection, schedule: Q01DX Z (ip), vehicle: saline 98 % of control

CCCCCCc1cc(N=Nc2ccc(S(N)(=O)=O)cc2)c(O)cc1O
inactive: [1] 97 % of control | [2] 102 % of control | [3] 96 % of control

O=C(Nc1cccc2ccccc12)OCC(Cl)(Cl)Cl
inactive: dose: 100.0 mg/kg/injection, schedule: Q01DX009 (ip), vehicle: carboxymethylcellulose (CMC) 97 % of control and 98 % of control | [16] 108 % of control | dose: 100.0 mg/kg/injection, schedule: Q04DX002 (ip), vehicle: carboxymethylcellulose (CMC) 108 % of control and 90 % of control | dose: 100.0 mg/kg/injection, schedule: Q04DX003 (ip), vehicle: carboxymethylcellulose (CMC) 103 % of control | dose: 200.0 mg/kg/injection, schedule: Q01DX009 (ip), vehicle: carboxymethylcellulose (CMC) 95 % of control and 90 % of control | [17] 96 % of control | dose: 200.0 mg/kg/injection, schedule: Q04DX002 (ip), vehicle: carboxymethylcellulose (CMC) 95 % of control and 97 % of control | dose: 200.0 mg/kg/injection, schedule: Q04DX003 (ip), vehicle: carboxymethylcellulose (CMC) 97 % of control | dose: 400.0 mg/kg/injection, schedule: Q01DX009 (ip), vehicle: carboxymethylcellulose (CMC) 95 % of control and 97 % of control | [18] 108 % of control | dose: 400.0 mg/kg/injection, schedule: Q04DX002 (ip), vehicle: carboxymethylcellulose (CMC) 97 % of control and 87 % of control | dose: 400.0 mg/kg/injection, schedule: Q04DX003 (ip), vehicle: carboxymethylcellulose (CMC) 94 % of control

Cc1n[nH]c(=S)[nH]c1=S
inactive: [13] 97 % of control

CCOC1(OCC)C([N+](=O)[O-])=CC(=[N+]([O-])O)C=C1[N+](=O)[O-]
inactive: [19] 102 % of control | [1] 98 % of control | [2] 98 % of control | [3] 101 % of control

CCCCP(=O)(CCC)CCCC
inactive: [13] 99 % of control | [14] 94 % of control | [15] 87 % of control

CCCCCCCCC(O)CCCC (stereo unspecified)
inactive: [7] 93 % of control | [8] 97 % of control | [9] 98 % of control | [10] 105 % of control | [11] 95 % of control | [12] 100 % of control

O=c1c2ccccc2[nH]c(=S)n1-c1ccc(Cl)cc1
inactive: [7] 100 % of control | [13] 100 % of control | [9] 111 % of control | [14] 100 % of control | [11] 97 % of control | [15] 97 % of control
